For test [1], the target named is T1, 5-hydroxytryptamine receptor 1D (Cavia porcellus, UniProt Q60484). Put plainly: Binding affinity against 5-hydroxytryptamine 1D receptor.
For test [2], the target named is T2, 5-hydroxytryptamine receptor 2C (Rattus norvegicus, UniProt P08909).
T2 sequence (P08909 whole entry): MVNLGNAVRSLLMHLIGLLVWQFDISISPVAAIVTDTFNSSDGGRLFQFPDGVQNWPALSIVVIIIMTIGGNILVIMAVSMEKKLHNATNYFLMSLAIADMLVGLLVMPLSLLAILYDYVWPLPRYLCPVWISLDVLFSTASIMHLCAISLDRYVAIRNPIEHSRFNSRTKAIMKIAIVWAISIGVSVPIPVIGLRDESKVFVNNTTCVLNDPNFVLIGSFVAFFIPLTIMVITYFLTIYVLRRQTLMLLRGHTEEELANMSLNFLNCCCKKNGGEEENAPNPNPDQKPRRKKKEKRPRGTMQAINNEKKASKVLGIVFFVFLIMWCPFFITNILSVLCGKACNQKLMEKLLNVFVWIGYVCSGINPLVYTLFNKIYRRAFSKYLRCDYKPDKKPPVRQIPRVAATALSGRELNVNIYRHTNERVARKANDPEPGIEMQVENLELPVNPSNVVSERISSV
Put plainly: Binding affinity against 5-hydroxytryptamine 1C receptor.

In test [3] the target is T3, Serotonin 2 (5-HT2) receptor (Rattus norvegicus, UniProt P30994+P08909+P14842). Put plainly: Binding affinity against 5-hydroxytryptamine 2 receptor using [125I]DOI as radioligand. The class given is protein assay.
In test [4] the target is 5-hydroxytryptamine receptor 1B (Homo sapiens, UniProt P28222). Put plainly: Binding affinity against 5-hydroxytryptamine 1B receptor.
Test [5] concerns the target T3, Serotonin 2 (5-HT2) receptor. Put plainly: Binding affinity against 5-hydroxytryptamine 2 receptor using [3H]ket as radioligand. The class given is protein assay.
The target of test [6] is T1, 5-hydroxytryptamine receptor 1D. Put plainly: Effect on forskolin stimulated adenylate cyclase activity at 5-HT1D receptor of guinea pig substantia nigra. The class given is functional.

The structures appear in SMILES notation. pEC50, pIC50: −log10 of the molar value.

T1 sequence (Q60484 whole entry): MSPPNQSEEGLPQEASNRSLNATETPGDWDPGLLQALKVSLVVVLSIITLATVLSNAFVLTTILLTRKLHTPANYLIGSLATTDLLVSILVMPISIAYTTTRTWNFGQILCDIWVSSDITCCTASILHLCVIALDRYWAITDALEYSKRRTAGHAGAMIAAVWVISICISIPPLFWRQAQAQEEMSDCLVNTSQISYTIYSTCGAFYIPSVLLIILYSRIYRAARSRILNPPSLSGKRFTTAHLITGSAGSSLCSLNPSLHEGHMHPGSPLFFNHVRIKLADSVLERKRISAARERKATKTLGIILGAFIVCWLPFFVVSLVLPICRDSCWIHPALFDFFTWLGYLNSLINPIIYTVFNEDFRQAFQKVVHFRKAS
Chain of 5-hydroxytryptamine receptor 1B (P28222 whole entry): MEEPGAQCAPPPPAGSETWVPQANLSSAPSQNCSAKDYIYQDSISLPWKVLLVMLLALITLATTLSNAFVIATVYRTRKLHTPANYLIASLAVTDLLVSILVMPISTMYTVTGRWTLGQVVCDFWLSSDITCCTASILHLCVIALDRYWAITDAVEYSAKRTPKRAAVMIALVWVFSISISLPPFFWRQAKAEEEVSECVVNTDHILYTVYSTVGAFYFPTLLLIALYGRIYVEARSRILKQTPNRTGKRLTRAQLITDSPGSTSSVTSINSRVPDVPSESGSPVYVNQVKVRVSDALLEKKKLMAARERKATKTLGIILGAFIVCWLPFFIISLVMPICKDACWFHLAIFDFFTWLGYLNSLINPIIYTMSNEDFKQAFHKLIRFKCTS

In turn, `COc1ccc2[nH]cc(CCN(C)C)c2c1` [MEBUFOTENIN] had a negative-log IC50 (pIC50) in test [1] of 7.31.
With `COc1ccc2[nH]cc(C[C@@H]3CCCN3C)c2c1`, the negative-log IC50 (pIC50) was 5.92 in test [2], 5.24 in test [4] and 6.38 in test [1]. Also, the figures for the concentration for half-maximal inhibition (IC50) in test [3] and in test [5] were 680 nM and more than 8400 nM, respectively.
On to `COc1ccc2[nH]cc(C[C@H]3CCCN3C)c2c1`, for which the pIC50 was 7.48 in test [2], 6.08 in test [4] and 7.62 in test [1]. The IC50 amounted to 17 nM in test [3] and 730 nM in test [5]. In test [6], this compound showed a pEC50 of 7.37.
In test [6], `NCCc1c[nH]c2ccc(O)cc12` [SEROTONIN] gave a pEC50 of 8.28. The same compound showed a pIC50 in test [1] of 8.52.

What is called pIC50 is −log10 of the IC50, conventionally taken in molar units. Higher therefore signals a low IC50. Usually IC50 stands for the concentration that inhibits the measured activity by half. A low value points to inhibition by little substance. As a reminder, the pEC50 is the EC50 on a negative log10 scale, so that one unit is a factor of ten. Low readings indicate a large EC50, high ones a small EC50.

The record behind these values is ChEMBL document CHEMBL1126097 (J Med Chem, 1992).
